{
  "source": "paper doi:10.1101/2020.12.13.873687v1",
  "about": "(biorxiv, 2020)",
  "data": [
    {"molecular_target": "human amylin (islet amyloid polypeptide, IAPP) (Homo sapiens, UniProt P10997)", "sequence (P10997 34-70)": "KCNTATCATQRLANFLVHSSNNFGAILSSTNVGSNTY", "test": "thioflavin T fluorescence amyloid aggregation inhibition", "format": "biochemical", "units": {"IC50": "µM"}, "values": [
      {"compound": "O=C(O[C@@H]1Cc2c(O)cc(O)cc2O[C@@H]1c1cc(O)c(O)c(O)c1)c1cc(O)c(O)c(O)c1", "note": "[Epigallocatechin gallate, reference compound]", "IC50": "~1"},
      {"compound": "O=C(O)/C=C/c1ccc(O)c(O)c1", "note": "[caffeic acid]", "IC50": 7.2},
      {"compound": "O=C(/C=C/c1ccc(O)c(O)c1)O[C@H](Cc1ccc(O)c(O)c1)C(=O)O", "note": "[rosmarinic acid]", "IC50": "0.2 to 0.3"},
      {"compound": "O=C(O)[C@H](O)Cc1ccc(O)c(O)c1", "note": "[salvianic acid A]", "IC50": 90}
    ]}
  ]
}
